Laboratory results as given in patent publication US6855549B1, “Methods and compositions for increasing the infectivity of gene transfer vectors” (The University of Iowa Research Foundation, priority 1998, dated 2005).

Experiments:
Format in all cases: cell-based
[1] = test system: differentiated human airway epithelia; test: Confocal (latex beads) and transmission electron microscopy of epithelial junctions after EGTA; conditions: 1 hr
Description: Ten micromoles of CMFDA (5-chloromethylfluorescein diacetate; Molecular Probes, Eugene, Oreg.) were added to the basal medium overnight to label cells (Knecht and Shelden, 1995; Stewart and Deacon, 1995). 100 nm latex beads (1×10^9 particles, Sigma, St. Louis, Mo.) were mixed with 12 mM hypotonic EGTA solution at a 1:1 ratio. The suspension was applied to the apical surface of KGF-stimulated epithelia for 1 hr. The epithelia were then washed with PBS 4-5 times for 20 min and then fixed in 4% paraformaldehyde/PBS for 20 min. The cell filter membranes were removed, mounted on slides, and examined under a confocal microscope (MRC 1024, Bio-Rad).
Transmission electron microscopy was used to study cell morphology following treatment with a 6 mM EGTA in hypotonic buffer for 1 hr. Differentiated human airway epithelia were fixed in 2.5% glutaraldehyde (0.1 M sodium cacodylate buffer, pH 7.4) overnight at 4° C., and then post-fixed with 1% osmium tetroxide for 1 hr. Following serial alcohol dehydration, samples were embedded in Eponate 12 (Ted Pella, Inc., Redding, Calif.). Sectioning and post-staining were performed using routine methods (see “Electron Microscopy: Principles and Techniques for Biologists,” Jones and Bartlett Publishers, Sudbury, Mass., 1998). Samples were examined under a Hitachi H-7000 transmission electron microscope. […]

[2] = test system: differentiated human airway epithelia; test: Transepithelial resistance of KGF-treated airway epithelia with Ca2+ chelators; conditions: 6 mM chelator, isotonic (220 mmol/kg)
Description: Differentiated epithelial cells were treated with 100 ng/ml KGF for 24 hr. Different concentrations of each calcium chelator in HEPES/HCl (pH 7.4) or in isotonic HEPES/saline (pH 7.4) buffer were mixed with vector buffer and applied to the apical surface for times as specified (Wang et al., 1998). Transepithelial resistance was measured with an Ohmmeter (EVOM; World Precision Instruments, Inc. Sarasota, Fla.) by adding cell culture media to the apical surface and the values were compared to untreated controls.
To understand whether the tonicity of the vector solution affects epithelial permeability and gene transfer efficiency, hypotonic (40 mmol/kg) or isotonic (220 mmol/kg) solutions of 6 mM EGTA, EDTA or BAPTA were added to the MuLV vector buffer and applied to the apical surface of differentiated airway epithelial cells pre-treated with KGF. At specific time intervals, transepithelial resistance (R1) was measured using an Ohmmeter.

[3] = test system: human bronchial epithelial cells
Description: Primary human airway epithelial cells were collected by enzymatic digestion of bronchial samples from lung transplants as previously described (Kondo et al., 1991; Zabner et al., 1996). Isolated airway primary cells were seeded at a density of 5×10^5 cells/cm^2 onto collagen-coated Millicell-HA culture inserts (Millipore, Bedford, Mass.). Primary cultures were grown at the air-liquid interface for more than 2 wk, at which time differentiation into a mucociliary epithelium occurs. The culture medium, used to feed only the basolateral side of the cells, contained 49% Dulbecco's modified Eagle's medium (DMEM), 49% Ham's F12, and 2% Ultraser G (BioSepra, Cedex, France).
Recombinant AAV virus was produced by a CaPO4 co-transfection protocol and was purified through three rounds of isopycnic cesium chloride ultracentrifuigation, as previously described (Duan et al., 1997). The proviral plasmid, pCisAV.GFP3ori, was used to generate rAAV (AV.GFP3ori), which encoded the enhanced green fluorescent protein (EGFP) reporter gene under the transcriptional control of the cytomegalovirus (CVM) enhancer/promoter and simian virus 40 (SV40) polyadenylation signal (Duan et al., 1998). Recombinant viral stocks were heated at 58° C. for 60 min to inactivate contaminating helper adenovirus. Typical yields were 1×10^9 particles/μl, determined on the basis of DNA slot-blot hybridization assays against plasmid standards. The level of adenoviral contamination, as based on a second reporter assay for the recombinant adenovirus used for propagation (Ad.CMVAlkphos) (Duane et al., 1997), was less than 1 functional particle per 1×10^10 DNA particles of rAAV. Viral preparations were evaluated for the contamination of wild type AAV (wtAAV) by immunocytochemical staining of AV.GFP3ori/Ad.CMVLacZ (Duan et al., 1998)-coinfected 293 cells with anti-Rep antibodies (American Research Products, Belmont, Mass.). […] Transfection with Rep/Cap-encoding plasmids served as controls for antibody staining of Rep protein. Virus was dialyzed in phosphate-buffered saline (PBS) prior to application on primary airway cultures. […]

SMILES: O=C(O)CN(CCOCCOCCN(CC(=O)O)CC(=O)O)CC(=O)O [EGTA]
- width of intercellular gap (TEM) ([1]; 6 mM EGTA in hypotonic buffer): ~500 nm
- intercellular spaces and deposition of 100 nm beads ([1]; hypotonic 6 mM EGTA, apical): caused a widening of the intercellular spaces and facilitated deposition of beads in the paracellular space
- time required to decrease R1 to ~20% of the controls [2]: Sixty
- apical transduction after EGTA, lower than maximal basolateral level [3]: 20 fold
- rAAV transduction, EGTA and virus on basolateral side [3]: no significant differences were seen in the extent of rAAV
- integrity of the monolayers by light microscopy ([3]; 40 days after hypotonic/EGTA treatment): No significant differences were detected in the integrity of the monolayers
